In ChEMBL document CHEMBL1201862, “PubChem BioAssay data set” (2004):
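The compound was tested at five concentrations on cells cultured in 96-well plates, with a 48-hour exposure period. Here, GI50 denotes the concentration required for 50% inhibition of growth.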 The source made the active and inactive calls. No stated cut-off is given here; in the data, active = GI50 up to about 1.1 µM and inactive = higher.

How the values were obtained:
Assay in all cases: NCI-60 cell line screen, 48 h
A498 = tested on: A498
CAKI-1 = tested on: CAKI-1
EKVX = tested on: EKVX
HCC 2998 = tested on: HCC 2998
HCT-116 = tested on: HCT-116
HCT-15 = tested on: HCT-15
HOP-62 = tested on: HOP-62
KM12 = tested on: KM12
LOX IMVI = tested on: LOX IMVI
MOLT-4 = tested on: MOLT-4
Malme-3M = tested on: Malme-3M
NCI-H23 = tested on: NCI-H23
NCI-H522 = tested on: NCI-H522
OVCAR-4 = tested on: OVCAR-4
SF-295 = tested on: SF-295
SK-MEL-28 = tested on: SK-MEL-28
SK-OV-3 = tested on: SK-OV-3
SW-620 = tested on: SW-620
U-251 = tested on: U-251
UACC-62 = tested on: UACC-62

| Structure (SMILES) | GI50 (A498) | GI50 (CAKI-1) | GI50 (EKVX) | GI50 (HCC 2998) | GI50 (HCT-116) | GI50 (HCT-15) | GI50 (HOP-62) | GI50 (KM12) | GI50 (LOX IMVI) | GI50 (MOLT-4) | GI50 (Malme-3M) | GI50 (NCI-H23) | GI50 (NCI-H522) | GI50 (OVCAR-4) | GI50 (SF-295) | GI50 (SK-MEL-28) | GI50 (SK-OV-3) | GI50 (SW-620) | GI50 (U-251) | GI50 (UACC-62) |
| --- | --- | --- | --- | --- | --- | --- | --- | --- | --- | --- | --- | --- | --- | --- | --- | --- | --- | --- | --- | --- |
| CCCCCCCCCCCC1=C(O)C(=O)C=C(O)C1=O [EMBELIN] | 5.75 µM (inactive) | 4.26 µM (inactive) | 7.31 µM (inactive) | 4.72 µM (inactive) | 9.2 µM (inactive) | 5.11 µM | 5.56 µM (inactive) | 6.38 µM (inactive) | 7.35 µM (inactive) | 6.35 µM (inactive) | 5.81 µM (inactive) | 7.05 µM (inactive) | 8.95 µM (inactive) | 10 µM (inactive) | 6.03 µM (inactive) | 6.67 µM (inactive) | 8.43 µM (inactive) | 18.3 µM (inactive) | 5.02 µM (inactive) | 4.11 µM (inactive) |
| COc1ccc2cc1Oc1ccc(cc1)C[C@H]1c3cc(c(OC)cc3CCN1C)Oc1c(O)c(OC)cc3c1[C@H](C2)N(C)CC3 [FANGCHINOLINE] | 18 µM (inactive) | 3.54 µM (inactive) | 4.45 µM (inactive) | 17.6 µM (inactive) | 13.3 µM (inactive) | 13.3 µM | 37.6 µM (inactive) | 16.8 µM (inactive) | 5.3 µM (inactive) | 11.7 µM (inactive) | 30.7 µM (inactive) | 40 µM (inactive) | 27.5 µM (inactive) | 26.5 µM (inactive) | 16.9 µM (inactive) | 21.8 µM (inactive) | 28.4 µM (inactive) | 15 µM (inactive) | 27.2 µM (inactive) | 20.7 µM (inactive) |
